According to ChEMBL document CHEMBL5223082, “Alkyl-Aryl-Vancomycins: Multimodal Glycopeptides with Weak Dependence on the Bacterial Metabolic State” (J Med Chem, 2021):
The source made the active and inactive calls. No cut-off for these calls is given here.

Columns and labels:
[1] = test system: Staphylococcus aureus; test: Antibacterial activity against Vancomycin-resistant Staphylococcus aureus 1 assessed as inhibition of bacterial growth incubated for 18 to 24 hrs by CLSI microbroth dilution method; type: functional; details: time 18-24 hrs
[2] = test system: Enterococcus; test: Antibacterial activity against Vancomycin-resistant Enterococci NR30909 assessed as inhibition of bacterial growth incubated for 18 to 24 hrs by CLSI microbroth dilution method; type: functional; details: time 18-24 hrs
[3] = test system: Staphylococcus aureus; test: Potency index, ratio of Vancomycin MIC to test compound MIC for antibacterial activity against Vancomycin-resistant Staphylococcus aureus 12; type: functional
[4] = test system: Enterococcus; test: Potency index, ratio of Vancomycin MIC to test compound MIC for antibacterial activity against Vancomycin-resistant Enterococci NR30909; type: functional, NR 30909
[5] = test system: Enterococcus; test: Potency index, ratio of Vancomycin MIC to test compound MIC for antibacterial activity against Vancomycin-resistant Enterococci ATCC 51559; type: functional
[6] = Induction of hemolysis in human erythrocytes incubated for 1 hr by microtiter plater reader analysis; type: toxicity, cell-based, Erythrocyte
[7] = Cytotoxicity against human HEK293 cells assessed as cell viability at 0.5 to 30 uM incubated for 24 hrs by AlamarBlue assay; type: toxicity, cell-based; details: dose 0.5-30 µM, read-out: Activity
[8] = test system: Staphylococcus aureus; test: Bactericidal activity against methicillin-resistant Staphylococcus aureus ATCC 33591 assessed as log reduction in bacterial colonies incubated for 2 hrs in broth solution followed by culturing for 24 hrs on agar plate by spot plating method; type: functional; details: time 26 hrs
[9] = test system: Staphylococcus aureus; test: Bactericidal activity against methicillin-resistant Staphylococcus aureus ATCC 33591 assessed as log reduction in bacterial colonies at 2XMIC incubated for 6 hrs in broth solution followed by culturing for 24 hrs on agar plate by spot plating method; type: functional; details: time 30 hrs
[10] = test system: Staphylococcus aureus; test: Bactericidal activity against methicillin-resistant Staphylococcus aureus ATCC 33591 assessed as eradication of viable bacterial cells at 4XMIC incubated for 6 hrs in broth solution followed by culturing for 24 hrs on agar plate by spot plating method; type: functional; details: time 30 hrs
[11] = test system: Enterococcus; test: Bactericidal activity against Vancomycin-resistant Enterococci assessed as log reduction in bacterial colonies at 4XMIC incubated for 24 hrs in broth solution followed by culturing for 24 hrs on agar plate by spot plating method; type: functional; details: time 48 hrs
[12] = test system: Staphylococcus aureus; test: Antibacterial activity against Methicillin-resistant Staphylococcus aureus ATCC 33591 assessed as inhibition of bacterial growth preincubated compound with N,N'-diacetyl-L-Lys-D-Ala-D-Ala for 10 mins followed by incubation with bacterial culture for 18 to 24 hrs by CLSI microbroth dilution method; type: functional; details: time 1090-1450 min
[13] = test system: Staphylococcus aureus; test: Antibacterial activity against Methicillin-resistant Staphylococcus aureus ATCC 33591 assessed as inhibition of bacterial growth preincubated compound with teichoic-acid for 1 hr followed by incubation with bacterial culture for 18 to 24 hrs by CLSI microbroth dilution method; type: functional; details: time 19-25 hrs
[14] = test system: Cell membrane; test: Induction of cytoplasmic membrane depolarization in Methicillin-resistant Staphylococcus aureus ATCC 33591 assessed as increase in fluorescence intensity at 10 uM measured for 35 to 40 mins by DiSC3(5) dye based fluorescence analysis; type: subcellular; details: time 35-40 min
[15] = test system: Cell membrane; test: Induction of cytoplasmic membrane permeabilization in Bacillus subtilis assessed as increase in fluorescence intensity at 10 uM measured for 30 to 40 mins by Propidium iodide staining based fluorescence analysis; type: subcellular; details: time 30-40 min
[16] = test system: Bacillus subtilis; test: Antibacterial activity against Bacillus subtilis 168 assessed as inhibition of bacterial growth incubated for 18 hrs by turbidity based analysis; type: functional
[17] = test system: Bacillus subtilis; test: Antibacterial activity against Bacillus subtilis 168 assessed as concentration that requires for bacterial growth retardation measured for every 30 mins; type: functional
[18] = target: T1, Septum site-determining protein MinD (Bacillus subtilis (strain 168)) (UniProt Q01464); test: Delocalization of GFP tagged-MinD in Bacillus subtilis 168 at PEC incubated for 15 mins by fluorescence microscopy
T1 sequence (whole entry): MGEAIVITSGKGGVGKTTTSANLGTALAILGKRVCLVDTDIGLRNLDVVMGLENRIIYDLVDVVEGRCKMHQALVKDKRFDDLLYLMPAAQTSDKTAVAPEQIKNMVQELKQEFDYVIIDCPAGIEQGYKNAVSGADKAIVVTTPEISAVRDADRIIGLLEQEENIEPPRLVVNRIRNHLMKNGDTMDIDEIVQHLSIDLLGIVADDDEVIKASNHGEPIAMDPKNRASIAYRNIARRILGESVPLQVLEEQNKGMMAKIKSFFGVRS

[19] = test system: Cell membrane; test: Induction of Cytoplasmic membrane disruption in Bacillus subtilis 168 assessed as proportion of PI-stained cells at PEC incubated for 10 mins by SYTO9/PI staining based fluorescence microscopy; type: subcellular
[20] = test system: Staphylococcus aureus; test: Antibacterial activity against stationary phase of Methicillin-resistant Staphylococcus aureus ATCC 33591 assessed as log reduction in bacterial colonies at 9 uM incubated for 12 hrs in broth solution followed by incubation on agar plate for 48 hrs by spot plating method; type: functional; details: time 60 hrs
[21] = test system: Staphylococcus aureus; test: Antibacterial activity against Methicillin-resistant Staphylococcus aureus ATCC 33591 persister cells assessed as log reduction in bacterial colonies at 4.5 uM incubated for 12 hrs in broth solution followed by incubation on agar plate for 48 hrs by spot plating method; type: functional; details: time 60 hrs
[22] = test system: Staphylococcus aureus; test: Antibacterial activity against Methicillin-resistant Staphylococcus aureus ATCC 33591 persister cells assessed as log reduction in bacterial colonies at 4.5 uM incubated for 24 hrs in broth solution followed by incubation on agar plate for 48 hrs by spot plating method; type: functional; details: time 72 hrs
[23] = test system: Staphylococcus aureus; test: Antibacterial activity against Methicillin-resistant Staphylococcus aureus ATCC 33591 persister cells assessed as log reduction in bacterial colonies at 9 uM incubated for 2 hrs in broth solution followed by incubation on agar plate for 48 hrs by spot plating method; type: functional; details: time 50 hrs
[24] = test system: Staphylococcus aureus; test: Antibiofilm activity against Methicillin-resistant Staphylococcus aureus ATCC 33591 assessed as log reduction in bacterial viability within the biofilms at 20 uM incubated for 24 hrs in broth solution followed by culturing on agar plate for 24 hrs by spot plating method; type: functional; details: time 48 hrs
[25] = test system: Staphylococcus aureus; test: Antibiofilm activity against Methicillin-resistant Staphylococcus aureus ATCC 33591 assessed as bacterial biofilm thickness at 20 uM incubated for 24 hrs by confocal laser scanning microscopy (reference value: 8 micrometer); type: functional
[26] = test system: Staphylococcus aureus; test: Antibacterial activity against Methicillin-resistant Staphylococcus aureus ATCC 33591 assessed as time duration of post-antibiotic effect for suppression of bacterial growth at 10XMIC incubated for 1 hr in broth solution followed by washing for drug removal and subsequent plating on nutrient agar plate; type: functional
[27] = Toxicity in BALB/c mouse assessed as adverse effects at 55.5 mg/kg, ip measured for 4 hrs; type: organism-based; details: in vivo
[28] = Toxicity in BALB/c mouse assessed as animal's survival rate at 55.5 mg/kg, iv measured for 14 days; type: organism-based; details: in vivo, time 14 day
[29] = Toxicity in BALB/c mouse assessed as animal's survival rate at 55.5 mg/kg, ip measured for 14 days; type: organism-based; details: in vivo, time 14 day
[30] = Hepatotoxicity in mouse assessed as plasma ALT level at 12 mg/kg, ip measured after 48 hrs; type: toxicity, organism-based; details: in vivo
[31] = test system: Staphylococcus aureus; test: Antibacterial activity against Methicillin-resistant Staphylococcus aureus ATCC 33591 infected in BALB/c mouse thigh infection model assessed as log reduction in bacterial load at 12 mg/kg, ip starting at 1 hr post-infection and measured at 24 hrs post-drug treatment; type: functional

Work on CCCCCCCCCCNC(=O)C[N+](C)(C)CCCNC(=O)c1ccc(CN[C@@]2(C)C[C@H](O[C@H]3[C@H](Oc4c5cc6cc4Oc4ccc(cc4Cl)[C@@H](O)[C@@H](NC(=O)[C@@H](CC(C)C)NC)C(=O)N[C@@H](CC(N)=O)C(=O)N[C@H]6C(=O)N[C@H]4C(=O)N[C@H](C(=O)N[C@H](C(=O)O)c6cc(O)cc(O)c6-c6cc4ccc6O)[C@H](O)c4ccc(c(Cl)c4)O5)O[C@H](CO)[C@@H](O)[C@@H]3O)O[C@@H](C)[C@H]2O)cc1 yielded an MIC [1] of 1.8 µM, an MIC [2] of 0.9 µM and a Ratio [3] of 1384. For the same compound, the Ratio [4] was 1384, the Ratio [5] was 1384 and the HC50 at 1 h [6] was over 250 µM. It also gave a viability at 24 h, up to 30 µM [7] of 100%, an Activity [8] of 2 log10CFU/ml and an Activity [9] of 4.3 log10CFU/ml. For the same compound, the Activity [10] was 100%, the Activity [11] was 5 log10CFU/ml and the MIC [12] was 0.9 µM. The MIC [13] was 0.9 µM, the Activity [14] was “Active” and the Activity [15] was “Active”. The MIC [16] was 0.45 µM, the EC [17] was 0.06 µM and the Activity [18] was “inactive”. It also gave an Activity [19] of 5%, an Activity [20] of 1.9 log10CFU/ml and an Activity [21] of 1.6 log10CFU/ml. The Activity [22] was 3.3 log10CFU/ml, the Activity [23] was 2 log10CFU/ml and the Activity [24] was 2.2 log10CFU/ml. For the same compound, the Activity [25] was 3.5 um, the Time [26] was 23 h and the Activity [27] was “Non-Toxic”. The survival at 336 h [28] was 100%, the survival at 336 h [29] was 100% and the Activity [30] was 62.25 U/L. It also gave an Activity [31] of 2.8 log10CFU/g.
